US20090306012A1, “THERAPEUTIC PROTOCOLS” (priority 2001, published 2009)
Where two headings read alike, the source gives them in different places.

Legend:
[1] = type: in vivo; conditions: 6-week regimen
Method: The overall survival time was calculated as the time (days or weeks) that the animal lived, after the commencement of treatment.

[2] = In vivo cytotoxicity (III), CMF±HA: organ pathology (lungs, liver); set-up: species or system Athymic CBA/WEHI nude female mice
Source text: (§1) Immediately after killing the mouse, the tumor, liver, heart, spleen, bladder, left and right kidneys, uterus, lungs, stomach, intestines, brain and lymph nodes were excised and weighed, and placed in 10% v/v formalin. The tissue was fixed for 16-24 hrs before histological processing. Fixed tissue was dehydrated stepwise to 100% v/v ethanol and embedded in paraffin blocks from which 2-4 μm sections were placed on glass microscope slides. Staining the tissue sections with a hematoxylin nuclear stain and eosin cytoplasmic stain highlighted any pathological features that could indicate treatment toxicity.

neutrophils [3] = assay: Phase I clinical trial of doxorubicin + HA (HyDox) in advanced cancer: toxicity, neutrophil counts; type: in vivo, patients; conditions: HA 500 mg/m^2 with Dox 30-60 mg/m^2, three week cycle
Source text: The eligibility criteria, for inclusion in this study, were as follows: Patients must have advanced or metastatic cancer, histologically or cytologically confirmed. Patients were not to have had previous chemotherapy or were to have had no more than one prior chemotherapy regime and were not to have had prior anthracyclines. Patients were to be aged between 18 and 75 years with ambulatory performance status and adequate bone marrow, liver and renal function.
The treatment plan provided that, in the first chemotherapy cycle, patients be randomized to receive Dox alone or Dox plus HA. The converse applied in the second cycle. In the subsequent four cycles, patients received Dox plus HA. This allowed each patient to act as his/her own control in the toxicity analysis in the first two cycles, reducing the possibility of inter-patient variability affecting result interpretation.
Injectable sodium chloride was obtained from Baxter Healthcare, Sydney, Australia, as supplied as a 500 ml infusion bag.
Therefore, the initial dose level was 30 mg/m^2, the next 45 mg/m^2 and the next 60 mg/m^2.

[4] = In vivo cytotoxicity (III), CMF±HA: effect of treatment on organ mass; set-up: species or system Athymic CBA/WEHI nude female mice; conditions: mouse
Source text: as §1
The mass of each organ was calculated as a percentage of the overall net bodyweight, and compared to the organ masses of the saline only group.

[5] = tested on: blood cell sub-populations; assay: In vivo cytotoxicity (III), CMF±HA: bone marrow suppression (blood cell counts); set-up: species or system Athymic CBA/WEHI nude female mice
Method: At the experimental end-point, when animals had to be euthanased due to degree of disease progression or when the 6-week treatment regimen was completed, the animals were anesthetized by a 0.1 ml intra-peritoneal injection of Nembutal (60 mg/ml), blood was collected, and the animals killed using cervical dislocation.
Erythrocyte, platelet and white blood cell numbers were estimated by making a 1/50- 1/2000 dilution of blood in mouse tenacity saline and counting on a hemocytometer. A blood smear was made and stained with Giemsa, thereby enabling a relative percentage quantification of neutrophils, lymphocytes, and […]. The total estimation of blood cell sub-populations was compared with published data for mouse blood.

neutrophils [6] = conditions: human, in vivo
Method: The 5-FU±HA was given by intravenous administration over one hour on a four week cycle. The initial dose of 5-FU in this study was 450 mg/m^2 daily for three days and the dose of HA 500 mg/m^2 with each administration of 5-FU. Dose escalation occurred in two steps to reach the standard dose of 450 mg/m^2 for five consecutive days with each cycle. Therefore, the initial dose level was 450 mg/r^2 daily for three days, the next 450 mg/m^2 for four days and the final 450 mg/m^2 daily for five days.

[7] = HA days 1 and 3 (CMF, where given, days 2 and 4)

With hyaluronan [HA] as the substance, how does the “Survival time mean ± SEM” value [1, 7] read?
The value was 42 ± 0 days.

What about the “Survival time mean ± SEM” value ([1]; administered days 1 and 2) of the same substance?
The value was 42 ± 0 days.

What about the “Liver: % with areas of focal liver necrosis/inflammation” value ([2]; liver pathology) of the same substance?
The value was 25% with.

What about the “Lungs: % with oedema and macrophage infiltrate” value ([2]; lung pathology) of the same substance?
The value was 12.5% with.

And the “Effect on known toxicities of Dox in patients” value (neutrophils [3])?
The value was “does not increase any of the known toxicities of Dox”.

What about the “Spleen mass compared to the untreated control” value [4] of the same substance?
Its value is “significant enlargement of the spleen”.

What about the “Erthrocytes (Mean ± SD)” value [5, 7] of the same substance?
The value was 8.78 ± 0.25 × 10^6/ul.

And the “Lymphocytes/Monocytes (Mean ± SD)” value [5, 7]?
Its value is 47 ± 2%.

And the “Neutrophils/eosinophils/basophils (Mean ± SD)” value [5, 7]?
Its value is 53 ± 2%.

What about the “Platelets (Mean ± SD)” value [5, 7] of the same substance?
Its value is 1356 ± 41 × 10^3/ul.

And the “White Cells (Mean ± SD)” value [5, 7]?
The value was 6.15 ± 0.05 × 10^3/ul.

And the “Erthrocytes (Mean ± SD)” value ([5]; administered days 1 and 2)?
Its value is 8.99 ± 0.13 × 10^6/ul.

And the “Lymphocytes/Monocytes (Mean ± SD)” value ([5]; administered days 1 and 2)?
The value was 47 ± 1%.

And the “Neutrophils/eosinophils/basophils (Mean ± SD)” value ([5]; administered days 1 and 2)?
The value was 53 ± 1%.

And the “Platelets (Mean ± SD)” value ([5]; administered days 1 and 2)?
Its value is 1374 ± 7 × 10^3/ul.

What about the “White Cells (Mean ± SD)” value ([5]; administered days 1 and 2) of the same substance?
The value was 6.15 ± 0.03 × 10^3/ul.

What about the “Effect on known toxicities of 5-FU in patients” value (neutrophils [6]) of the same substance?
The value was “does not increase any of the known toxicities of 5-FU”.
